Reference: PubChem BioAssay AID274 (DTP/NCI, 2004)
Toxic doses and inconclusive results are not listed. The calls were made as follows: active = survival T/C of 150% or more; inactive = T/C below 125% in these data.

Tested on: BDF1 mice, Lewis lung carcinoma iv, survival T/C
Experiment: NCI In Vivo Anticancer Drug Screen. Data for tumor model Lewis Lung Carcinoma (intravenous) in B6D2F1 (BDF1) mice
Conditions: endpoint: median survival time, higher = longer survival
Protocol: The antitumor activity of compounds was measured in mice bearing transplantable tumors. Survival or tumor size were measured and the results are expressed as the measurement made in the treated group (T) divided by the measurement made in the vehicle treated control group (C). The tumor model used in this assay is Lewis Lung Carcinoma (intravenous) in B6D2F1 (BDF1) mice

[1] = dose: 1.56 mg/kg/injection, schedule: Q01DX009 (ip), vehicle: saline with Tween-80
[2] = dose: 6.25 mg/kg/injection, schedule: Q01DX009 (ip), vehicle: saline with Tween-80
[3] = dose: 12.5 mg/kg/injection, schedule: Q01DX009 (ip), vehicle: saline with Tween-80
[4] = dose: 25.0 mg/kg/injection, schedule: Q01DX009 (ip), vehicle: saline
[5] = dose: 100.0 mg/kg/injection, schedule: Q01DX009 (ip), vehicle: saline
[6] = dose: 200.0 mg/kg/injection, schedule: Q01DX009 (ip), vehicle: saline
[7] = dose: 50.0 mg/kg/injection, schedule: Q01DX009 (ip), vehicle: saline with Tween-80
[8] = dose: 100.0 mg/kg/injection, schedule: Q01DX009 (ip), vehicle: saline with Tween-80
[9] = dose: 200.0 mg/kg/injection, schedule: Q01DX009 (ip), vehicle: saline with Tween-80
[10] = dose: 3.12 mg/kg/injection, schedule: Q01DX009 (ip), vehicle: Klucel (hydroxypropylcellulose) (HPC)
[11] = dose: 6.25 mg/kg/injection, schedule: Q01DX009 (ip), vehicle: Klucel (hydroxypropylcellulose) (HPC)
[12] = dose: 12.5 mg/kg/injection, schedule: Q01DX009 (ip), vehicle: Klucel (hydroxypropylcellulose) (HPC)
[13] = dose: 25.0 mg/kg/injection, schedule: Q01DX009 (ip), vehicle: Klucel (hydroxypropylcellulose) (HPC)
[14] = dose: 25.0 mg/kg/injection, schedule: Q01DX009 (ip), vehicle: saline with Tween-80
[15] = dose: 50.0 mg/kg/injection, schedule: Q01DX009 (ip), vehicle: Klucel (hydroxypropylcellulose) (HPC)
[16] = dose: 100.0 mg/kg/injection, schedule: Q01DX009 (ip), vehicle: Klucel (hydroxypropylcellulose) (HPC)
[17] = dose: 200.0 mg/kg/injection, schedule: Q01DX009 (ip), vehicle: Klucel (hydroxypropylcellulose) (HPC)
[18] = dose: 400.0 mg/kg/injection, schedule: Q01DX009 (ip), vehicle: Klucel (hydroxypropylcellulose) (HPC)
[19] = dose: 1.0 mg/kg/injection, schedule: Q01DX009 (ip), vehicle: saline with Tween-80
[20] = dose: 2.0 mg/kg/injection, schedule: Q01DX009 (ip), vehicle: saline with Tween-80
[21] = dose: 4.0 mg/kg/injection, schedule: Q01DX009 (ip), vehicle: saline with Tween-80
[22] = dose: 8.0 mg/kg/injection, schedule: Q01DX009 (ip), vehicle: saline with Tween-80
[23] = dose: 3.12 mg/kg/injection, schedule: Q01DX009 (ip), vehicle: saline with Tween-80
[24] = dose: 50.0 mg/kg/injection, schedule: Q01DX009 (ip), vehicle: saline
[25] = dose: 400.0 mg/kg/injection, schedule: Q01DX009 (ip), vehicle: saline
[26] = dose: 3.12 mg/kg/injection, schedule: Q01DX009 (ip), vehicle: saline
[27] = dose: 6.25 mg/kg/injection, schedule: Q01DX009 (ip), vehicle: saline
[28] = dose: 12.5 mg/kg/injection, schedule: Q01DX009 (ip), vehicle: saline

Measured: T/C

COc1cc(O)c2c(O)c3c(c4c2c1[C@]1(C4)C(C)=CCCC1(C)C)[C@H](O)[C@@]1(O)CC(=O)C(C(N)=O)=C(O)[C@@]1(O)C3=O
inactive: [1] 112 % of control | dose: 3.13 mg/kg/injection, schedule: Q01DX009 (ip), vehicle: saline with Tween-80 100 % of control | [2] 103 % of control | [3] 102 % of control

[Cl][Pt+2][Cl].[NH-]CC1(C[NH-])CCCCC1
inactive: dose: 1.5 mg/kg/injection, schedule: Q01DX009 (ip), vehicle: saline 96 % of control | dose: 3.0 mg/kg/injection, schedule: Q01DX009 (ip), vehicle: saline 96 % of control | dose: 6.0 mg/kg/injection, schedule: Q01DX009 (ip), vehicle: saline 102 % of control

COc1cc2c(c(OC)c1OC)-c1ccc(OC)c(=O)cc1[C@@H](NC(C)=O)CC2
inactive: dose: 0.19 mg/kg/injection, schedule: Q01DX009 (ip), vehicle: saline 102 % of control | dose: 0.38 mg/kg/injection, schedule: Q01DX009 (ip), vehicle: saline 109 % of control

NCCCNCCSP(=O)(O)O
inactive: dose: 300.0 mg/kg/injection, schedule: Q01DX001 (ip), vehicle: saline 88 % of control | dose: 500.0 mg/kg/injection, schedule: Q01DX001 (ip), vehicle: saline 88 % of control

CC[As](=O)(O)CC
inactive: [4] 105 % of control | [5] 101 % of control | [6] 86 % of control

Cc1cn(C2CC(O)C(CO)O2)c(=O)[nH]c1=O (stereo not given)
inactive: [3] 89 % of control | [7] 88 % of control | [8] 94 % of control | [9] 98 % of control

COc1ccc2nc3cc(Cl)ccc3c(NCCNCCNCCNc3c4ccc(Cl)cc4nc4ccc(OC)cc34)c2c1
inactive: [10] 99 % of control | [11] 103 % of control | [12] 89 % of control | [13] 97 % of control

Nc1ccc2ccc(O)cc2c1
inactive: [14] 100 % of control | [7] 99 % of control | [8] 91 % of control

Cc1ccc(NCC2(/N=C/c3ccccc3)OC(CO)C(O)C2O)cc1 (stereo not given)
inactive: [12] 103 % of control | [13] 95 % of control | [15] 100 % of control | [16] 99 % of control | [17] 96 % of control | [18] 86 % of control

O=S(=O)(O)O
inactive: [19] 91 % of control | [20] 86 % of control | [21] 86 % of control | [22] 97 % of control

Cc1cc(N(CCOS(C)(=O)=O)CCOS(C)(=O)=O)ccc1C=Nc1ccc(-c2nc(Cc3ccccc3)sc2C)cc1
inactive: [13] 117 % of control | [15] 87 % of control

O=[n+]1c2c(n([O-])c3ccccc31)-c1cccc3cccc-2c13
inactive: [14] 100 % of control | [7] 104 % of control | [8] 105 % of control

CC(C)[NH-].CC(C)[NH-].O.O.[Cl][Pt+2][Cl]
inactive: dose: 3.13 mg/kg/injection, schedule: Q01DX009 (ip), vehicle: dextrose 100 % of control | dose: 6.25 mg/kg/injection, schedule: Q01DX009 (ip), vehicle: dextrose 102 % of control

CCCCCCCCCCCCCCCCS(=O)CC(O)COC(=O)c1ccc(C(=O)OCC(O)CS(=O)CCCCCCCCCCCCCCCC)cc1 (stereo not given)
inactive: dose: 12.5 mg/kg/injection, schedule: Q01DX009 (ip), vehicle: saline + Tween-80 + alcohol 88 % of control | dose: 25.0 mg/kg/injection, schedule: Q01DX009 (ip), vehicle: saline + alcohol 95 % of control | dose: 50.0 mg/kg/injection, schedule: Q01DX009 (ip), vehicle: saline + Tween-80 + alcohol 95 % of control | dose: 100.0 mg/kg/injection, schedule: Q01DX009 (ip), vehicle: saline + Tween-80 + alcohol 92 % of control | dose: 100.0 mg/kg/injection, schedule: Q01DX009 (ip), vehicle: saline + alcohol 101 % of control | dose: 200.0 mg/kg/injection, schedule: Q01DX009 (ip), vehicle: saline + Tween-80 + alcohol 99 % of control
active: dose: 200.0 mg/kg/injection, schedule: Q01DX009 (ip), vehicle: saline + alcohol 218 % of control

COc1ccc(C(N)=O)cc1N=NN(C)C
inactive: [10] 95 % of control | [11] 98 % of control | [12] 118 % of control | [13] 110 % of control

CC(C)(C)N1CC1CNC(=O)C(=O)NCC1CN1C(C)(C)C (stereo not given)
inactive: dose: 0.78 mg/kg/injection, schedule: Q01DX009 (ip), vehicle: saline with Tween-80 111 % of control | [1] 105 % of control | [23] 98 % of control | [2] 105 % of control | [3] 117 % of control

O=NN(CCCl)C(=O)NC1CCC(=O)NC1=O (stereo not given)
inactive: dose: 0.5 mg/kg/injection, schedule: Q01DX009 (ip), vehicle: saline with Tween-80 115 % of control | [19] 103 % of control | [22] 104 % of control
active: [20] 185 % of control | [21] 247 % of control

CCCCOCN(COCCCC)C(C)Cc1ccccc1 (stereo not given)
inactive: [3] 102 % of control | [14] 96 % of control | [7] 95 % of control | [8] 100 % of control | [9] 101 % of control

CC(=O)N(C)O
inactive: [14] 102 % of control | [7] 90 % of control | [8] 98 % of control | [9] 95 % of control

CN(C)CCN1C(=O)c2cccc3cc(N)cc(c23)C1=O
inactive: [19] 100 % of control | [20] 100 % of control | [21] 97 % of control | [22] 98 % of control | dose: 16.0 mg/kg/injection, schedule: Q01DX009 (ip), vehicle: saline with Tween-80 116 % of control

N=C(N)SCc1cccc2c(=O)cc(-c3ccccc3)oc12
inactive: [12] 107 % of control | [13] 104 % of control | [4] 106 % of control | [15] 107 % of control | [24] 94 % of control | [5] 100 % of control | [25] 89 % of control

NC(N)=NOCC[C@@H](N)C(=O)O
inactive: [4] 105 % of control | [24] 99 % of control | [5] 107 % of control | [6] 94 % of control | [25] 112 % of control

Clc1ccc(C2SC=Cc3ccccc32)cc1 (stereo not given)
inactive: [12] 94 % of control | [13] 105 % of control | [15] 108 % of control | [16] 108 % of control | [17] 115 % of control | [18] 108 % of control

NC(=O)c1ncn2c(=O)n(CCCl)nnc12
inactive: [26] 103 % of control | [27] 120 % of control
active: [28] 159 % of control | [4] 298 % of control

COc1cc(NCCCCCCCNC(C)C)c2nccc(C)c2c1
inactive: [26] 94 % of control | [27] 100 % of control | [28] 98 % of control | [4] 108 % of control

CCC1OCC(C(Cl)CCl)O1 (stereo not given)
inactive: [23] 103 % of control | [2] 97 % of control | [12] 97 % of control | [3] 108 % of control | [13] 98 % of control | [14] 109 % of control | [15] 97 % of control | [7] 94 % of control | [16] 96 % of control | [8] 109 % of control | [17] 97 % of control

COP12(OCCO1)SC(C(F)(F)F)=C(C(F)(F)F)S2
inactive: [2] 106 % of control | [3] 105 % of control | [14] 98 % of control | [7] 95 % of control

CCOC(=O)C1C2OC(=O)C(C(=O)C2CN(CCCl)CCCl)C1C1CC=C(CC2=CCC(C3C4C(=O)OC(C(CN(CCCl)CCCl)C4=O)C3C(=O)OCC)CC2)CC1 (stereo not given)
inactive: [12] 104 % of control | [13] 104 % of control | [15] 102 % of control | [16] 111 % of control

CC(=O)OCC1OC(n2ncc(=O)[nH]c2=O)C(OC(C)=O)C1OC(C)=O (stereo not given)
inactive: [16] 100 % of control | [17] 109 % of control | [18] 107 % of control
